In patent US20230382928A1, “EUROPIUM(III) COMPLEXES AS PH SENSORS” (CISBIO BIOASSAYS, priority 2020, published 2023):

Legend:
[1] = Excited state (emission) lifetime at different pH; format: physicochemical
Experimental: (§2) An emission lifetime value at each pH was obtained by plotting the decay of the emission lifetime over time and fitting the curve to a simple exponential decay model. The pKa values of the complexes were determined for the reversible protonation.

[2] = pKa determination from emission lifetime variation versus pH
Experimental: as §2

[3] = Absorption spectra / molar extinction coefficient (Beer-Lambert); format: physicochemical; settings: for λexc (nm): excitation wavelength; for ε: molar extinction coefficient at λexc
Experimental: The properties of representative complexes of the invention (complexes 14, 18, 21, 78a, 78b, 88a, 88b, 93, 104) were investigated. The presence of the Boc-group was not predicted to alter these properties. The experiments were thus carried out with the Boc group for the functionalized complexes. The absorption and emission spectra were recorded in a pH gradient (pH 4 to pH 10).
(§1) Traditionally, molar extinction coefficients, ε, are calculated using the Beer-Lambert equation and involve measuring the absorbance of a series of solutions of a complex at different known concentrations. A plot of absorbance at a particular wavelength against concentration allows determination of ε from the gradient of the linear correlation. The quantum yield (QY) of the complexes increases as the pH decreases. For complexes 78b, 88a, 88b and 93, the quantum yield at pH 8 is approaching 0 meaning that the complexes are therefore hardly emissive at physiological pH and conversely, these complexes are very bright at pH 4.
This could be useful as excitation at, or near, this wavelength would allow equal excitation of both the unprotonated and protonated complex, which exist in a pH-dependent equilibrium in solution. An isosbestic point was not observed for Complex 14.

[4] = Quantum yield of europium complexes at different pH; format: physicochemical; settings: for Q.Y. pH 4 / Q.Y. pH 8: text gives the same values in %; for Q.Y. pH 4 / ΦpH 4 (quantum yield): pH 4; for ΦpH 4 (quantum yield) / ΦpH 8 (quantum yield): λexc 330-332 nm; for Q.Y. pH 8 / ΦpH 8 (quantum yield): pH 8
Experimental: The properties of representative complexes of the invention (complexes 14, 18, 21, 78a, 78b, 88a, 88b, 93, 104) were investigated. The presence of the Boc-group was not predicted to alter these properties. The experiments were thus carried out with the Boc group for the functionalized complexes. […]
as §1

[5] = Time-gated emission intensity, pH 4/pH 8 ratio; format: physicochemical; settings: λem=613.5 nm
From the text: Data was normalised for a 60 μs delay at pH 4.
Data were normalised for a 60-460 μs time window at pH 4. Measurements were taken in NH4CH3CO2 (pH 4 and 5), MES (pH 5.5, 6 and 6.5), HEPES (pH 7) and NH4HCO3 (pH 8) buffers (all 0.1 M with 0.1 M NaCl).
A benefit of the long-lived lifetime of emission for the lanthanides is the possibility of performing time-gated measurements. Further to this, as a result of the ‘switch-on’ nature of complex 18, the unprotonated and protonated forms differ in emission lifetime. These properties allow the unique opportunity to control, to some degree, the apparent pKa value as well as the relative degree of ‘switching-on’ of the probe by changing the time window. This aspect is illustrated in practice using appropriate buffers of different pH (in the presence of 0.1 M NaCl) in FIG. 28.
By measuring the emission intensity of the hypersensitive ΔJ=2 band at different pH with a longer delay time after excitation (FIG. 28 top), a shallower curve was obtained (a lower apparent pKa).
A summary of the ratios of emission intensity (at λem=613.5 nm) at pH 4 (sensor on) and pH 8 (sensor off), where the emission signal was measured between different time windows, for complex 18 is presented in Table 4.
The extent of the switch-on response of the complex may be quantified, for comparison purposes, as the ratio of the emission intensity at the maximum of the ΔJ=2 band at pH 4, when the sensor is fully switched ‘on’, and pH 8, when the sensor is effectively ‘off’.

[6] = Fluorescence intensity at 620 nm as a function of pH (Pherastar FS plate reader); format: physicochemical; settings: pH 4 to pH 7.8; 0.1% BSA; FIG. 29
Experimental: The fluorescence intensity of representative complexes of the invention (78a, 78b, 104) was measured using a Plate Reader Pherastar FS equipped with a flash lamp. The buffers (pH 4 to pH 7.8) were distributed in a white 96-well plate, then the lanthanide complexes (10 μL at 110 nM) were distributed in an aqueous solution comprising 0.1% BSA. By way of comparison, the fluorescence intensity of the following complexes was also measured: […]

SMILES | Excited state lifetime ([1]; pH 4) [ms] | Excited state lifetime ([1]; pH 5) [ms] | Excited state lifetime ([1]; pH 6) [ms] | Excited state lifetime ([1]; pH 7) [ms] | Excited state lifetime ([1]; pH 8) [ms] | pKa ([2]; 295 K, I = 0.1M NaCl) | ε (molar extinction coefficient) ([3]; at the wavelength (330-336 nm)) [M⁻¹ cm⁻¹] | λexc (nm) [3] [nm] | ε [3] [M⁻¹ cm⁻¹] | Q.Y. pH 4 [4] [%] | ΦpH 4 (quantum yield) [4] [%] | Q.Y. pH 8 [4] [%] | ΦpH 8 (quantum yield) [4] [%] | Excited state lifetime ([1]; pH 9) [ms] | ε (molar extinction coefficient) ([3]; at the wavelength (330-331 nm)) [L M^−1 cm^−1] | variation of fluorescence intensity at 620 nm as a function of pH [6] | also measured
CCN(CC)c1cc(C#Cc2cc(CN3CCN(Cc4cccc(P(C)(=O)[O-])n4)CCN(Cc4cccc(P(C)(=O)[O-])n4)CC3)nc(P(C)(=O)[O-])c2)ccc1OC.[Eu+3] [Complex 14] | 1.16 | 1.15 | 1.06 | 0.74 | 0.53 | 6.75 | 11450 | 331 | 11450 | 16.8 | 16.8 | 0.5 | 0.5 |  |  |  | Excited state lifetime ([1]; pH 9, listed as 14): 0.5 ms; Excited state lifetime ([1]; pH 9, listed as drawing 59): 0.50 ms; isosbestic point ([3]; absorption spectra pH 4 to 10): not observed
CCN(CC)c1cc(C#Cc2cc(CN3CCN(Cc4cccc(P(C)(=O)[O-])n4)CCN(Cc4cc(C#Cc5ccc(OC)c(N(CC)CC)c5)cc(P(C)(=O)[O-])n4)CC3)nc(P(C)(=O)[O-])c2)ccc1OC.[Eu+3] [Complex 18] |  | 0.96 | 0.78 | 0.47 | 0.34 | 6.3 |  | 328 | 35000 | 17.6 |  | 0.2 |  | 0.34 |  |  | Excited state lifetime ([1]; pH 3): 1 ms; Excited state lifetime ([1]; pH 4, listed as 18): 1 ms; Excited state lifetime ([1]; pH 4, listed as drawing 63): 1.00 ms; ratio of emission intensity pH 4/pH 8 ([5]; time window 60-460 μs): 32; ratio of emission intensity pH 4/pH 8 ([5]; time window 1000-2000 μs): 227; ratio of emission intensity pH 4/pH 8 ([5]; time window 1500-2500 μs): 465
CCN(CC)c1cc(C#Cc2cc(CN3CCN(Cc4cc(C#Cc5ccc(OC)c(N(CC)CC)c5)cc(P(C)(=O)[O-])n4)CCN(Cc4cc(C#Cc5ccc(OC)c(N(CC)CC)c5)cc(P(C)(=O)[O-])n4)CC3)nc(P(C)(=O)[O-])c2)ccc1OC.[Eu+3] [Complex 21] | 0.84 | 0.83 | 0.59 | 0.32 | 0.25 | 6.21 |  | 331 | 45000 | 17 |  | 0.1 |  | 0.24 | 45000 |  | 
CCN(CC)c1cc(C#Cc2cc(CN3CCN(Cc4cc(C#Cc5ccc(OCCCC(=O)O)c(N(CC)CC)c5)cc(P(C)(=O)[O-])n4)CCN(Cc4cc(CCCNC(=O)OC(C)(C)C)cc(P(C)(=O)[O-])n4)CC3)nc(P(C)(=O)[O-])c2)ccc1OCCCC(=O)O.[Eu+3] [Complex 77a] | 0.97 | 0.95 | 0.53 | 0.39 | 0.27 |  |  |  |  |  |  |  |  |  |  |  | 
CCN(CC)c1cc(C#Cc2cc(CN3CCN(Cc4cc(C#Cc5ccc(OCCCC(=O)NCCCS(=O)(=O)[O-])c(N(CC)CC)c5)cc(P(C)(=O)[O-])n4)CCN(Cc4cc(CCCNC(=O)OC(C)(C)C)cc(P(C)(=O)[O-])n4)CC3)nc(P(C)(=O)[O-])c2)ccc1OCCCC(=O)NCCCS(=O)(=O)[O-].[Eu+3] [Complex 78a] | 1.04 | 0.98 |  | 0.34 | 0.25 | 6.20 |  | 330 | 39000 | 16 | 16 | 0.3 | 0.3 |  | 39000 | pH sensitive | Excited state lifetime ([1]; pH 6, listed as 78a): 0.7 ms; Excited state lifetime ([1]; pH 6, listed as drawing 109): 0.70 ms
CCN(C)c1cc(C#Cc2cc(CN3CCN(Cc4cc(C#Cc5ccc(OCCCC(=O)NCCCS(=O)(=O)[O-])c(N(C)CC)c5)cc(P(C)(=O)[O-])n4)CCN(Cc4cc(CCCNC(=O)OC(C)(C)C)cc(P(C)(=O)[O-])n4)CC3)nc(P(C)(=O)[O-])c2)ccc1OCCCC(=O)NCCCS(=O)(=O)[O-].[Eu+3] [Complex 78b] | 1.05 | 0.77 | 0.42 | 0.29 |  | 5.34 |  | 330 | 39000 | 14.5 | 14.5 |  | 0.01 |  | 39000 | pH sensitive | Excited state lifetime ([1]; pH 8, listed as 78b): 0.3 ms; Excited state lifetime ([1]; pH 8, listed as drawing 110): 0.30 ms
CCN(CCCS(=O)(=O)O)c1cc(C#Cc2cc(CN3CCN(Cc4cc(C#Cc5ccc(OC)c(N(CC)CCCS(=O)(=O)O)c5)cc(P(C)(=O)O)n4)CCN(Cc4cc(CCCNC(=O)OC(C)(C)C)cc(P(C)(=O)O)n4)CC3)nc(P(C)(=O)O)c2)ccc1OC [Complex 88a] | 1.07 | 0.76 | 0.41 | 0.29 | 0.31 |  | 35000 | 332 | 35000 | 13.4 | 13.4 |  | 0.06 | 0.31 |  |  | pKa ([2]; 0.1 M NaCl (ionic strength)): 5.2
CCN(CC)c1cc(C#Cc2cc(CN(CC(=O)O)CC(=O)O)nc(CN(CC(=O)O)CC(=O)O)c2)ccc1OCCCN [Complex 104] | 0.38 | 0.37 | 0.35 | 0.32 |  |  | 12000 | 330 | 12000 | 3.2 | 3.2 | 0.17 | 0.17 |  |  | pH sensitive | Excited state lifetime ([1]; pH 8, listed as 104): 0.3 ms; Excited state lifetime ([1]; pH 8, listed as drawing 127): 0.30 ms; pKa ([2]; 0.1 M NaCl (ionic strength)): 6.35
